# Measurements as given in patent US20180250207A1, “LIQUID CONCENTRATE FOR PRESERVING COSMETICS” (SCHÜLKE & MAYR GMBH, priority 2015, published 2018).
# Where a name gives a salt, the structure may show the parent alone.
# Tested on: Staphylococcus aureus, Kocuria rhizophila, Enterobacter gergoviae, Escherichia coli, Klebsiella pneumoniae, Pseudomonas aeruginosa, Pseudomonas fluorescens …
# Assay: Koko test: preserving effect of preservatives in a cosmetic formulation (PEG-free emulsion for baby wipes), weekly re-inoculation and smears
# Format: cell-based, bacteria, yeast, moulds
# Details: use concentration of 1.0% by weight in the emulsion
# Experimental: The test described below serves to assess the preserving effect of chemical preservatives in cosmetic formulations. With the help of the described method, the aim is to test the efficacy of chemical preservatives with regard to pack preservation for cosmetic formulations. For this purpose, in different experimental batches to the nonpreserved samples, the preservatives to be investigated are added in different concentrations. A continual germ loading is achieved through periodic inoculation of the experimental batches. In parallel to the inoculation, smears of the individual batches are performed in each case directly beforehand. […] To be on the safe side, negative smears are observed for a further two days and assessed again. Assessment of the preserving effect of the individual product concentrations is performed in a semi-quantitative method via the growth of the individual smears. −=growth-free ++=moderate growth +=weak growth +++=strong growth The growth is differentiated according to bacteria, yeasts and moulds (“B”=bacteria, “Y”=yeasts, “M”=moulds, “Sp”=spore-forming bacteria, “/”=the test was terminated). […] The sample is well preserved if, under the aforementioned laboratory conditions, it withstands a period of six weeks without microbial attack of the sample batches, i.e. microbial growth cannot be detected even after the sixth inoculation. […]
structure (smiles),measurement,value
CCCCCCCCN=c1ccn(CCCCCCCCCCn2ccc(=NCCCCCCCC)cc2)cc1 [Octenidine dihydrochloride],"Preserving effect, overall assessment in words",does not have an antimicrobial effect on its own
